In PubChem BioAssay AID720587 (Broad Institute, 2013) one finds AC35 data, which are given here for 76 compounds.

Values joined by “and” are separate entries in the source; they are usually repeats but may differ in a detail not shown here. Equal values may be shown once.

The assay relates to A673 Ewing sarcoma viability, CellTiter-Glo ATP luminescence, 72 h. The assay is described as follows: EWS/Fli1-dependent A673 cell killing, confirmation, CellTiter-Glo luminescence, cherry-pick retest (AID 720587). A general note: Cellular ATP, detected with luciferase, serves as a proxy for viable cell number.
With `C[C@@H]1CN([C@H](C)CO)C(=O)CCCn2nncc2CO[C@H]1CN(C)Cc1ccc(Oc2ccccc2)cc1`, the AC35 was 21.1 µM.

With `O=C1c2ccc3c4c(ccc(c24)C(=O)N1c1cccc(O)c1)C(=O)N(c1cccc(O)c1)C3=O`, the AC35 is 2.47 µM.

As for `Cc1cccc(NC(=O)CN2CCN(C(=O)CNC(=O)c3ccc(-c4ccccc4)cc3)CC2)c1C`, the AC35 is 12.8 µM.

For the compound `C=C1C(=O)O[C@@H]2[C@H]1[C@@H](OC(=O)/C(C)=C/C)C/C(C)=C\C(=O)/C=C(\C)[C@@H]2O`, the AC35 is 3.23 µM.

Regarding `CC(C)c1oc(=O)cc2c1[C@@H](O)[C@H]1OC(=O)[C@@]3(C)CC[C@@H](O)[C@@]2(C)C13` (stereo partly specified), the AC35 is 19.3 µM.

Consider `CCC1=Nc2cc(C(=O)NCC3CCCO3)ccc2Sc2ccc(Br)cc21` (stereo unspecified), for which the AC35 is 4.39 µM.

`S=c1[nH]nc(-c2cc(-c3ccccc3)n[nH]2)n1/N=C/C(Br)=C/c1ccccc1`: the AC35 was 5.5 µM.

For `CCCCCCCCNC(C)C(O)c1ccc(SC(C)C)cc1` (stereo unspecified), the AC35 was 5.92 µM.

`COCCOC(=O)N1C(=O)[C@@]2(c3cc(C#CCC(C(=O)OC)C(=O)OC)ccc31)[C@H](c1ccccc1OCCO)N1[C@H](c3ccccc3)[C@H](c3ccccc3)OC(=O)[C@H]1[C@@H]2C(=O)N1CCN(c2ncccn2)CC1`: the AC35 is 5.04 µM.

`CC1(C)N=C(N)N=C(N)N1c1ccc(OCCCOc2ccccc2)c(Cl)c1`: the AC35 is 1.48 µM.

Regarding `Cc1nc(N)nc(N)c1CCCc1ccc(Cl)c(Cl)c1`, the AC35 was 2.8 µM.

For `C/C(=C\c1ccccc1)C(=O)N1CCC=CC1=O`, the AC35 is 9 µM.

Consider `Cc1cccc(N2CCN(C3C(=O)Nc4ccccc4-n4nnnc43)CC2)c1C` (stereo unspecified), for which the AC35 was 13.1 µM.

Take `O=C(N/N=C/c1ccc[nH]1)c1cc(-c2ccc(Cl)cc2)nc2ccccc12`: the AC35 is 11.6 µM.

As to `C[C@@H]1CN([C@@H](C)CO)C(=O)Cc2cc(NC(=O)C3CCCCC3)ccc2O[C@H]1CN(C)Cc1ccc(C(=O)Nc2ccccc2N)cc1`, the AC35 is 20.8 µM.

Regarding `COc1cc(-c2coc3c(C(=O)NCc4ccc(C(F)(F)F)cc4)cccc23)ccc1O`, the AC35 is 13.7 µM.

As to `C=CCOc1ccccc1C(=O)/C=C1/C(=O)Nc2ccccc21`, the AC35 was 9.62 µM.

`O=C(C1CC1)N1C[C@@H]2N[C@H](C1)C2c1ccc(/C=C/c2ccccc2)cc1` (stereo partly specified): the AC35 was 15.2 µM.

With `COc1ccc(CN(C)C[C@H]2Oc3ccc(NC(=O)CCCCCC(=O)Nc4ccccc4N)cc3CC(=O)N([C@H](C)CO)C[C@H]2C)cc1`, the AC35 was 18 µM.

`C[C@H](CO)N1C[C@H](C)[C@H](CN(C)Cc2ccc(C(F)(F)F)cc2)Oc2ccc(NC(=O)CCCCCC(=O)Nc3ccccc3N)cc2CC1=O`: the AC35 is 7.93 µM.

Take `C[C@H]1CN([C@@H](C)CO)C(=O)Cc2cc(NC(=O)C3CC3)ccc2O[C@H]1CN(C)S(=O)(=O)c1ccc(Cl)cc1`: the AC35 was 15.6 µM.

For `CC1=NN(c2ccc(C)cc2)C(=O)/C1=C\C=C\c1ccccc1`, the AC35 is 7.95 µM.

Take `C[C@@H]1CN([C@H](C)CO)C(=O)c2cccc(N(C)C)c2O[C@@H]1CN(C)Cc1ccc(C(=O)Nc2ccccc2N)cc1`: the AC35 was 19.6 µM.

`CCCCCCCCCCCCCCCCn1cc[n+](C)c1`: the AC35 is 12.6 µM.

`O=C(/C=C/c1cc(Br)ccc1O)c1ccco1`: the AC35 is 12.3 µM.

As to `C[C@H]1CCCCO[C@H](CN(C)Cc2ccc(C(F)(F)F)cc2)[C@@H](C)CN([C@@H](C)CO)C(=O)c2cc(NC(=O)Nc3ccccc3)ccc2O1`, the AC35 was 12.6 µM.

For the compound `COc1cccc(-c2cc(NC=O)c3ncc(-c4ccc(C(C)=O)cc4)n3c2)c1`, the AC35 is 4.09 µM.

For the compound `CCCCCCCCCCCCCCCCCCNc1ccn(C2OC(COP(=O)(O)OCC3OC(n4cc(F)c(=O)[nH]c4=O)CC3O)C(O)C2O)c(=O)n1` (stereo unspecified), the AC35 is 0.137 µM.

`C[C@]12CC[C@H](O)C[C@H]1CC[C@@H]1[C@@H]2C[C@@H](O)[C@]2(C)[C@@H](C3=CC(=O)OC3)CC[C@]12O`: the AC35 was 1.1 µM.

Take `Cc1ccc2nc(-c3ccccc3)nn2c1`: the AC35 was 13.8 µM.

`Nc1nc2cc3c(cc2cc1C(=O)NCCc1c[nH]c2ccccc12)OCO3`: the AC35 is 8.07 µM.

`N#C[C@H]1[C@H](c2ccc(-c3ccccc3F)cc2)[C@@H](CO)N1C(=O)c1ccccn1`: the AC35 was 14.5 µM.

As to `COc1ccc(OC)c(/C=C/c2ccnc3ccccc23)c1`, the AC35 was 1.7 µM.

For the compound `COC(=O)C[C@@H]1CC[C@@H]2[C@@H](COc3ccc(NC(=O)Nc4cccc(C#N)c4)cc3C(=O)N2C)O1`, the AC35 is 9.17 µM.

As to `COc1ccc(C2=Nn3c(nnc3-c3ccccc3F)SC2)cc1OC1CCOC1` (stereo unspecified), the AC35 was 13.5 µM.

Turning to `C[C@@H]1CN([C@@H](C)CO)S(=O)(=O)c2ccc(C#Cc3ccncc3)cc2O[C@H]1CN(C)S(=O)(=O)c1ccccc1`, the AC35 is 12.4 µM.

For `C(=N\Nc1nc2ccccc2s1)/c1ccccn1`, the AC35 is 0.696 µM.

Turning to `CCN1CCS/C1=C\C=C\C1=[N+](CC)CCS1`, the AC35 was 16.1 µM.

Consider `C[C@H]1CN([C@@H](C)CO)C(=O)c2cccc(NC(=O)CCCCCC(=O)Nc3ccccc3N)c2O[C@@H]1CN(C)Cc1ccc2c(c1)OCO2`, for which the AC35 was 23.6 µM.

Regarding `CCOC(=O)[C@]12Cc3ccc(C)cc3[C@H]1N(C1CCCCC1)C(=O)c1ccccc12`, the AC35 was 5.01 µM.

Turning to `C[C@H]1CN([C@@H](C)CO)C(=O)Cc2cc(NC(=O)CCCCCC(=O)Nc3ccccc3N)ccc2O[C@H]1CN(C)Cc1ccc(C(F)(F)F)cc1`, the AC35 was 12.5 µM.

With `N#C[C@H]1[C@H](c2ccc(-c3ccccc3F)cc2)[C@@H](CO)N1C(=O)Cc1ccccc1`, the AC35 was 10.2 µM.

Take `N#CC1=C(N)Oc2cc(N)ccc2C1c1cccc(Br)c1` (stereo unspecified): the AC35 was 0.505 µM.

Turning to `COC(=O)Cc1[nH]n(-c2nc3ccccc3s2)c(=O)c1C(C)=Nc1ccc(OC)cc1`, the AC35 is 19.2 µM.

On to `O=C1NC(=O)N(Cc2ccccc2)C(=O)/C1=C\C=C\c1ccco1`, for which the AC35 was 5.05 µM.

As for `C[C@@H]1CN([C@@H](C)CO)C(=O)c2cccc(NC(=O)CCCCCC(=O)Nc3ccccc3N)c2O[C@@H]1CN(C)Cc1ccc(Oc2ccccc2)cc1`, the AC35 was 14.8 µM.

With `C[C@H]1CN([C@@H](C)CO)C(=O)Cc2cc(NC(=O)CCCCCC(=O)Nc3ccccc3N)ccc2O[C@H]1CN(C)Cc1ccc(Cl)c(Cl)c1`, the AC35 is 10.2 µM.

Regarding `CC(C)(C)c1ccc(Oc2ccc(N)cn2)cc1`, the AC35 was 5.13 µM.

For `COc1ccc(OC)c(-c2nnc3n2N=C(c2ccc(OC)c(OC4CCOC4)c2)CS3)c1` (stereo unspecified), the AC35 was 3.24 µM.

`O=C1NC(=O)N(Cc2ccco2)C(=O)/C1=C/C=C/c1ccco1`: the AC35 was 5.61 µM.

For the compound `Oc1c(Cl)cc(Cl)c(Cl)c1Cc1c(O)c(Cl)cc(Cl)c1Cl`, the AC35 is 15.9 µM.

Take `C[C@@H]1O[C@@H](O[C@H]2C[C@@H](O)[C@]3(CO)[C@H]4[C@H](O)C[C@]5(C)[C@@H](C6COC(=O)C6)CC[C@]5(O)[C@@H]4CC[C@]3(O)C2)[C@H](O)[C@H](O)[C@H]1O` (stereo partly specified): the AC35 is 2.06 µM.

As for `COC(=O)C[C@@H]1CC[C@@H]2[C@H](COc3ccc(NC(=O)c4ccc(F)c(F)c4)cc3C(=O)N2C)O1`, the AC35 was 19.7 µM.

As for `C[C@H](O)C#Cc1ccc2c(c1)O[C@@H](CN(C)Cc1ccc(-c3ccccc3)cc1)[C@H](C)CN([C@@H](C)CO)S2(=O)=O`, the AC35 was 5.46 µM and 7.12 µM.

As for `COc1ccc(S(=O)(=O)Nc2ccc3c(c2)C(=O)N([C@H](C)CO)C[C@@H](C)[C@@H](CN(C)CC2CCCCC2)OCCCC[C@H](C)O3)cc1`, the AC35 is 12.3 µM.

Consider `NC(Cc1ccc(C(F)(F)F)cc1)c1csc(NC(=O)Nc2ccccc2Cc2ccccc2)n1` (stereo unspecified), for which the AC35 is 12.8 µM.

Take `O=C(O)c1ccccc1C(=O)Nc1ccc(Oc2cccc3ccccc23)cc1`: the AC35 is 18.9 µM.

Regarding `O=C(C[C@H]1C[C@H]2c3cc(NS(=O)(=O)c4ccc(F)cc4)ccc3O[C@H]2[C@H](CO)O1)NCc1ccc(Oc2ccccc2)cc1`, the AC35 is 12.6 µM.

Take `Cc1ccc2c(=O)n3c(nc2c1)C(Cc1ccc(O)cc1)NC(=O)c1cc2ccccc2cc1-3` (stereo unspecified): the AC35 was 7.13 µM.

As for `C=C1C(=O)C=C[C@]2(C)C[C@@H]3OC(=O)[C@](C)(O)[C@H]3C[C@@H]12`, the AC35 is 4.67 µM.

Turning to `CCOc1cc2[nH]c(=S)n(Cc3ccc(C(=O)N4CCN(C)CC4)cc3)c(=O)c2cc1OCC`, the AC35 is 19.9 µM.

As for `COC(=O)C[C@@H]1CC[C@@H]2[C@H](COc3ccc(NC(=O)Nc4ccc(C#N)cc4)cc3C(=O)N2C)O1`, the AC35 was 23.1 µM.

Take `O=c1[nH]c(=O)n([C@H]2C[C@H](O)[C@@H](CO)O2)cc1C(F)(F)F`: the AC35 is 4.17 µM.

With `COC(=O)C[C@@H]1CC[C@@H]2[C@H](COc3ccc(NC(=O)c4cc(C)on4)cc3C(=O)N2C)O1`, the AC35 was 14.5 µM.

As for `COC1C(C)OC(OC2CC(C)(O)Cc3cc4c(c(O)c32)C(=O)c2c(O)cc3c(c2C4=O)OC2OC3(C)C(O)C(N(C)C)C2O)C(OC)C1(C)OC` (stereo unspecified), the AC35 was 0.0582 µM.

Consider `C#CCOCCOCCOCCNc1nc(N2CCN(C(=O)CCCCCCCCCCNC(=O)Cn3cc(C[C@@H](C)O)nn3)CC2)nc(N2CCN(C(=O)CCCCCCCCCCNC(=O)[C@H](CO)n3cc(CCCSC)nn3)CC2)n1`, for which the AC35 is 13.3 µM.

For the compound `CC(=O)OC1CC(OC2C(O)CC(OC3C(O)CC(OC4CCC5(C)C(CCC6C5CCC5(C)C(C7=CC(=O)OC7)CCC65O)C4)OC3C)OC2C)OC(C)C1OC1OC(CO)C(O)C(O)C1O` (stereo unspecified), the AC35 is 0.105 µM.

In the case of `Nc1nc(=S)c2[nH]cnc2[nH]1`, the AC35 was 0.814 µM.

With `CN(c1ccc(NC(=O)CCc2c[nH]c3ccccc23)cc1)c1ccccn1`, the AC35 is 9.08 µM.

Consider `OCC1OC(n2ccc3c2ncn2ncnc32)C(O)C1O` (stereo unspecified), for which the AC35 was 0.693 µM.

Take `O=C1NC(=O)N(Cc2ccc(F)cc2)C(=O)/C1=C\C=C\c1ccco1`: the AC35 is 5.3 µM.

For the compound `Cc1ccc(S(=O)(=O)Nc2ccc3c(c2)C(=O)N([C@@H](C)CO)C[C@H](C)[C@@H](CN(C)Cc2ccc(C(F)(F)F)cc2)OCCCC[C@@H](C)O3)cc1`, the AC35 is 13.8 µM.

Turning to `COc1cccc(-c2cccc(-c3nc(C(=O)NCC(F)(F)F)cc4c3[C@H](CCO)N([S@@](=O)C(C)(C)C)C4)c2)c1`, the AC35 is 8.4 µM.

Regarding `CCCN1C(=O)/C(=C/c2nc3ccccc3c(=O)[nH]2)c2ccccc21`, the AC35 was 22 µM.

On to `C[C@H](CO)N1C[C@H](C)[C@H](CN(C)Cc2ccc(C(=O)Nc3ccccc3N)cc2)Oc2c(cccc2N(C)C)C1=O`, for which the AC35 is 17.6 µM.

Turning to `COC(=O)C[C@@H]1CC[C@@H]2[C@@H](COc3ccc(NC(=O)Nc4ccccc4C)cc3C(=O)N2C)O1`, the AC35 was 19.7 µM.
